Patent US12162858B2, “Quinoline derivatives as inhibitors of AXL/MER RTK and CSF1R” (QURIENT CO., LTD., priority 2018, dated 2024)

What was measured:
[1] = biological target: T1, Mer (Homo sapiens, UniProt Q12866); experiment: LanthaScreen Eu kinase binding assay for Mer; details: read-out: Mer kinase binding activity (Kd)
T1 construct: purchased Life Technologies
T1 sequence (Q12866 21-999): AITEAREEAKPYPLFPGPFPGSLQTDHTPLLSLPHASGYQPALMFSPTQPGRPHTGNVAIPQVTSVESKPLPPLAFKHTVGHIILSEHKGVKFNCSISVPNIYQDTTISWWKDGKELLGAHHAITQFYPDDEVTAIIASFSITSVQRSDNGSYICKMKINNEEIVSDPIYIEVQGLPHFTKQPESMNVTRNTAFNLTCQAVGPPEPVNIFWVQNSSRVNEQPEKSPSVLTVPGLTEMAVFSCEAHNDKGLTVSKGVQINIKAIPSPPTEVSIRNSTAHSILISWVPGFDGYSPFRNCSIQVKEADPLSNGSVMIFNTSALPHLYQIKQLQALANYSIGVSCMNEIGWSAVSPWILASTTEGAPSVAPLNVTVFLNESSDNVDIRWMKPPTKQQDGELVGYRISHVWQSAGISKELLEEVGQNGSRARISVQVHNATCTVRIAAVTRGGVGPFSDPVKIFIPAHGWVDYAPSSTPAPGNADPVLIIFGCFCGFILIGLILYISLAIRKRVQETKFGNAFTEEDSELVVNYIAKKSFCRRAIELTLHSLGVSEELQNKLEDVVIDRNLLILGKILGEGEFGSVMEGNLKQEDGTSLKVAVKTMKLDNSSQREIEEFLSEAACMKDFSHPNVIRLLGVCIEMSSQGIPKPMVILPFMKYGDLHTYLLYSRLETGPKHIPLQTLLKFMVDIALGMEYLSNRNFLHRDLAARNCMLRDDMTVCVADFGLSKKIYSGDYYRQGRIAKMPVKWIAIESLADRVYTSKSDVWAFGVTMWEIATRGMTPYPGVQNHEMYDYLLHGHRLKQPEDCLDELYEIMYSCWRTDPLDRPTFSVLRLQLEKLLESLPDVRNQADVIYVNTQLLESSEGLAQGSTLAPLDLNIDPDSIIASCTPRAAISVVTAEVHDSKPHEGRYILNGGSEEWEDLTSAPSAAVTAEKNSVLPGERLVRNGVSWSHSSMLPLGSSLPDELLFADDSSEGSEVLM
Method: LanthaScreen® Eu Kinase Binding assays were conducted at Life Technologies using the manufacturer's specifications for each kinase indicated.
Briefly, the principle behind this assay is based upon the binding and displacement of an Alexa Fluor 647-labeled tracer to the kinase of interest. Binding of the tracer to the kinase is detected using an EU-labeled anti-tag antibody. Simultaneous binding of both the tracer and antibody to the kinase gives rise to a FRET-signal. Binding of an inhibitor to the kinase competes for binding with the tracer, resulting in a loss of FRET-signal.
A given compound was diluted in DMSO to make a stock compound solution. The stock compound solution was serially diluted over eight steps in DMSO. Each diluted compound solution in DMSO was diluted in kinase buffer. Afterwards four kinds of working solution were prepared. First, Tracer-Working solution consists of Tracer 236 and Kinase Buffer. Second, Axl, Mer, Tyro3 or Met/anti-GST-AB-Working solution contained one of the kinases Axl, and Mer or anti-GST-AB (=anti glutathione-S-transferase antibody) in Kinase Buffer. Third, anti-GST-AB-Working solution was made with anti-GST-AB and Kinase Buffer. Last, in the DMSO-Working solution DMSO was added to Kinase Buffer to a final concentration to 3%. Each of the four kinds of working solutions were separately added to the assay plate and then incubated for 1 h at room temperature. After incubation, the assay plate was measured with respect to the FRET-Signal with the EnVision (Perkin Elmer) using the program LanthaHTRF-Assay. Data evaluation was done in the Quattro Workflow software. Kd (the equilibrium dissociation constant) values were calculated relative to vehicle (DMSO) control wells.

[2] = system: CSF1R (M-NFS-60 cells); experiment: Cell Titer-Glo viability assay using M-NFS-60 cells; assay type: cell-based; details: Mus musculus, read-out: Cellular CSF1R activity by M-NFS-60 viability assay (IC50 activity range)
Method: M-NFS-60 cells were cultured in RPMI-1640 medium containing 10% FBS, 0.05 mM 2-Mercaptoethanol, penicillin (100 U/ml)/streptomycin ([…]) and supplemented with 62 ng/ml recombinant human M-CSF at 37° C./5% CO2. Aliquots of the cells were seeded into a 96-well plate (2×10^5 cells in 100 μl/well) and then incubated at 37° C./5% CO2 1 h. Dissolve compound in 100% DMSO to make 10 mM stock solutions (Aliquots stored in the Nitrogen Cabinet). Dilute 10 mM compounds solutions for 2-fold in 100% DMSO to get 5 mM solutions (10 μl+10 μl DMSO), and then make a 3-fold serial dilution (10 μl+20 μl DMSO) for 10 doses. For reference compounds: Dilute 10 mM compounds solutions for 20-fold in 100% DMSO to get 0.5 mM solutions (2 μl+38 μl DMSO), and then make a 3-fold serial dilution (10 μl+20 μl DMSO) for 8 doses. The 96-well plate was equilibrated at room temperature for 30 min. 50 μl of CellTiter-Glo® Reagent added to each well and mixed for 2 min on an orbital shaker to induce cell lysis. The 96-well plate was incubated at room temperature for 10 min to stabilize luminescent signal. Luminescent was measured […] by EnVison plate reader. Calculations and Formulas: The following calculations and formulas are used for data analysis using XL Fit software: The curve fitting was made using the Sigmoidal Dose-Response Model (Fit model, 205).

| Kd [1] [µM] | Compound | IC50 [2] [µM] |
| --- | --- | --- |
| < 0.1 | COc1cc2nccc(Oc3ccc(NC(=O)c4nn(C5CC5)cc4OCC(F)F)nn3)c2cc1OC [Compound 162] | 1 to 10 |
| 0.1 to 0.5 | COc1cc2nccc(Oc3ccc(NC(=O)c4nn(C5CCNC5)cc4OCC(F)(F)F)nn3)c2cc1OC (stereo not shown) [Compound 122] | 1 to 10 |
